Consider eight compounds from patent US10793525B2, “13-cis-RAMBA retinamides that degrade MNKs for treating cancer” (UNIVERSITY OF MARYLAND, BALTIMORE, priority 2014, dated 2020).

Where two headings read alike, the source gives them in different places.

Series [1] deals with PC-3 human prostate carcinoma cells. As to the kind of experiment: MTT cell proliferation assay, PC-3. In kind it is cell-based. The note with it: PC-3 cells, SEM < 10%, read-out: GI50s PC-3. An excerpt:
(§1) MCF-7, MDA-MB-231, MDA-MB-468 and SKBR-3 human breast cancer cells and LNCaP, PC-3, and CWR22Rv1 human prostate carcinoma cells (American Type Culture Collection, Manassas, Va., USA) were maintained in RPMI 1640 media (Gibco-Life Technologies, Grand Island, N.Y., USA) supplemented with 10% fetal bovine serum and 1% penicillin/streptomycin. Western blotting was done as mentioned previously,^8, 13b using the following antibodies: AR, Bad, Bax, Bcl-2, eIF4E, Mnk1, Mnk-2, N-cadherin, PARP, peIF4E^ser209 purchased from Cell Signaling Technology, Danvers, Mass., USA. Anti-Mnk2 was purchased from Sigma-Aldrich and normal rabbit IgG, cyclin D1 was from Santa Cruz Biotechnology, CA, USA.
(§2) Cells were plated (2500 cells/well) in 96 well plates and treated with or without specified compounds as described previously.^8a, 12b
(§3) The clinically relevant retinoids, ATRA and 4-HPR and the Mnk inhibitor, cercosporamide were used as comparators in the assays.
(§4) The PC-3 cell line was the least sensitive to all the compounds tested.
In general terms: Tetrazolium dyes change colour on reduction, which living cells bring about.

Series [2] relates to SKBR-3 human breast cancer cells. The series is described as follows: MTT cell proliferation assay, SKBR-3. In kind it is cell-based. The note with it: SK-BR-3, SKBR-3 cells, SEM < 10%, read-out: GI50s SKBR-3.
Source text: as §1, §2, §3

For series [3], the system named is CWR22Rv1 human prostate carcinoma cells. As to the kind of experiment: MTT cell proliferation assay, CWR22Rv1. In kind it is cell-based. To be noted: SEM < 10%, read-out: GI50s CWR22Rv1.
Source text: as §1, §2, §3, §4

The subject of series [4] is LNCaP human prostate carcinoma cells. The series is described as follows: MTT cell proliferation assay, LNCaP. In kind it is cell-based. To be noted: SEM < 10%, read-out: GI50s LNCaP.
Source text: as §1, §2, §3, §4

Series [5] deals with MCF-7 human breast cancer cells. The series is described as follows: MTT cell proliferation assay, MCF-7. In kind it is cell-based. To be noted: MCF-7 cells; for IC50: Homo sapiens, MCF7, MTT, SEM < 10%, read-out: GI50s MCF-7.
Source text: as §1, §2, §3

Series [6] concerns MDA-MB-468 human breast cancer cells. As to the kind of experiment: MTT cell proliferation assay, MDA-MB-468. The note with it: MDA-MB-468 cells, SEM < 10%, read-out: GI50s MDA-MB-468. In kind it is cell-based.
Source text: as §1, §2, §3

For series [7], the system named is MDA-MB-231 human breast cancer cells. The series is described as follows: MTT cell proliferation assay, MDA-MB-231. In kind it is cell-based. The note with it: MDA-MB-231 cells, SEM < 10%, read-out: GI50s MDA-MB-231.
Source text: as §1, §2, §3

For series [8], the system named is CWR22Rv1 human prostate carcinoma cells. The note with it: previously reported in Ramamurthy V et al., read-out: GI50s CWR22Rv1; cited from earlier work.
The subject of series [9] is PC-3 human prostate carcinoma cells. The note with it: PC-3 cells; previously reported in Ramamurthy V et al.; read-out: GI50s PC-3; cited from earlier work.
For series [10], the system named is LNCaP human prostate carcinoma cells. To be noted: previously reported in Ramamurthy V et al., read-out: GI50s LNCaP; cited from earlier work.
The subject of series [11] is Mnk1 and 2, peIF4E, eIF4E and cPARP. The series is described as follows: Western blot of lysates from MCF-7, MDA-MB-231 and MDA-MB-468 cells. In kind it is cell-based, human. The note with it: MCF-7, MDA-MB-231, MDA-MB-468 cells, 24 hours.
Source text: as §1
As we previously reported, the anti-proliferative effects of the 1st generation MNKDAs in BC cells was due to degradation of Mnk1/2 with subsequent depletion of peIF4E and induction of apoptosis.^8a To determine if these compounds modulate Mnk1/2 and related oncogenic proteins, the inventors performed western blot of lysates from MCF-7, MDA-MB-231 and MDA-MB-468 human breast cancer cells treated with Compounds 16, 20, and 22, or with vehicle (DMSO, negative control), or Compound 6 (positive control). Equal protein concentrations from MCF-7 (FIG. 3A), MDA-MB-231 (FIG. 3B) and MDA-MB-468 (FIG. 3C) cells treated for 24 hours with Compounds 16, 20 and 22 at the various concentrations as indicated and Compound 6 (20 μmol/L) were separated by SDS-PAGE and western blots probed with antibodies to Mnk1 and 2, peIF4E, eIF4E and cPARP. Vehicle treated cells were included as control and all blots were reprobed for GAPDH for loading control.
In general terms: A western blot detects proteins with antibodies after separation by electrophoresis.

For series [12], the system named is fAR, Mnk1/2, peIF4E, cyclin D1 and cleaved PARP. The series is described as follows: Western blot of lysates from LNCaP cells. In kind it is cell-based, human. The note with it: 0.6-20 μM, 24 hours.
Source text: as §1
Equal protein concentrations from LNCaP cells treated with Compounds 16, 20 and 22 at different concentrations (0.6-20 μM) for 24 hours were separated by SDS-PAGE and western blots probed with antibodies to fAR, Mnk1/2, peIF4E, cyclin D1 and cleaved PARP. Vehicle treated cells were included as a control and all blots were reprobed for β-actin for loading control.

For the next series, the system named is PC-3 cells. As to the kind of experiment: Wound-healing assay, PC-3 cell migration. In kind it is cell-based, human. To be noted: 5 μM, 24 hours. Here is the method:
Wound healing assay and matrigel invasion assay were also conducted as described previously using highly metastatic PC-3 cells following treatment with 5 μM of RRs for 24 h.^8a,26
Based on previous studies with closely related compound,^8 the inhibitory effects of Compounds 16, 20 and 22 on cell migration were evaluated, using the human metastatic PC cell line, PC-3 by wound-healing assay. PC-3 cells (5×10^5 cells/well) were seeded on Boyden chamber, grown to confluence and scratches made at experimental tome zero. The cells were treated with indicated compounds (5 μM each) for 24 hours. Representative photomicrographs of initial and final wounds are shown at 100× magnification. […] At 24 hours after cell monolayers were wounded, control cells had completely filled in the scratched area.

Series [13] has as its system MCF-7, MDA-MB-231, MDA-MB-468 and SKBR-3 human breast cancer cells. As to the kind of experiment: MTT cell proliferation assay, four breast cancer cell lines together. In kind it is cell-based. The note with it: range across the four BC cell lines, read-out: GI50s, range over the BC cell lines.
Source text: as §1, §2, §3

Regarding `CC1=C(/C=C/C(C)=C/C=C/C(C)=C\C(=O)Nc2ccc(O)cc2)C(C)(C)CCC1n1ccnc1` (stereo not drawn) [Compound 17, (2Z,4E,6E,8E)-9-(3-(1H-imidazol-1-yl)-2,6,6-trimethylcyclohex-1-en-1-yl)-N-(4-hydroxyphenyl)-3,7-dimethylnona-2,4,6,8-tetraenamide], the IC50 in series [1] came out at 11.7 µM; in series [2], 3.89 µM; in [3], 3.89 µM; in series [4], 3.54 µM; in series [5] it was 1.99 µM; in series [6] it was 6.83 µM. The IC50 in [7] came out at 13.1 µM.
Consider `CC(O)(CS(=O)(=O)c1ccc(F)cc1)C(=O)Nc1ccc(C#N)c(C(F)(F)F)c1` (stereo not drawn) [Casodex], for which the IC50 was 3.81 µM in [8], 9.15 µM in series [9] and 2.61 µM in series [10].
In the case of `CC1=C(/C=C/C(C)=C/C=C/C(C)=C\C(=O)Nc2ccccc2O)C(C)(C)CCC1n1ccnc1` (stereo not drawn) [Compound 18, (2Z,4E,6E,8E)-9-(3-(1H-imidazol-1-yl)-2,6,6-trimethylcyclohex-1-en-1-yl)-N-(2-hydroxyphenyl)-3,7-dimethylnona-2,4,6,8-tetraenamide], the IC50 in series [1] was found to be 15.5 µM; in series [2] it was 3.89 µM; in series [3], 2.23 µM; in series [4], 3.23 µM; in [5], 1.09 µM; in series [6], 3.03 µM. Moreover, in series [7], the IC50 was found to be 4.67 µM.
For `CC1=C(/C=C/C(C)=C/C=C/C(C)=C\C(=O)Nc2ccc(F)cc2)C(C)(C)CCC1n1ccnc1` (stereo not drawn) [Compound 19, (2Z,4E,6E,8E)-9-(3-(1H-imidazol-1-yl)-2,6,6-trimethylcyclohex-1-en-1-yl)-N-(4-fluorophenyl)-3,7-dimethylnona-2,4,6,8-tetraenamide], the IC50 is 30.2 µM in series [1]; 25.1 µM in [2]; 3.89 µM in series [4]; 0.4 µM in series [5]; 4.57 µM in series [6]; 4.95 µM in [7]. The “fold more potent than Compound 16 (GI50, MCF-7)” value in series [5] (versus Compound 16) is about 4.8 fold.
`CC1=C(/C=C/C(C)=C/C=C/C(C)=C\C(=O)Nc2ccccc2)C(C)(C)CC=C1c1cncnc1` [Compound 38, (2Z,4E,6E,8E)-3,7-dimethyl-N-phenyl-9-(2,6,6-trimethyl-3-(pyrimidin-5-yl)cyclohexa-1,3-dien-1-yl)nona-2,4,6,8-tetraenamide]: the melting point (commonly the temperature of the solid-liquid transition) was 105 to 107 °C. Besides, the IC50 in series [2] was found to be 31 µM. Besides, the IC50 in [5] was found to be 7.01 µM. Moreover, in series [6], the IC50 was determined as 22.9 µM. Besides, the IC50 in series [7] came out at 26.9 µM.
Regarding `CC1=C(/C=C/C(C)=C/C=C/C(C)=C\C(=O)Nc2ccccc2)C(C)(C)CCC1n1ccnc1` (stereo not drawn) [Compound 16, (2Z,4E,6E,8E)-9-(3-(1H-imidazol-1-yl)-2,6,6-trimethylcyclohex-1-en-1-yl)-3,7-dimethyl-N-phenylnona-2,4,6,8-tetraenamide], the IC50 in [1] turned out to be 8.91 µM; in series [2] it was 1.73 µM; in series [3] it was 1.28 µM; in series [4], 2.69 µM; in series [5] it was 1.9 µM; in series [6] it was 2.54 µM. For the same compound, the IC50 in [7] is 1.74 µM; in series [13], 1.74 to 2.54 µM. For the same compound, the “expression of total eIF4E” value in [11] and in [12] was “no noticeable effects” in each case. Further, in [11], the “expressions of Mnk1, Mnk2 and peIF4E” value was “significantly and dose-dependently, reduced”. In addition, in series [11], the “formation of c-PARP (apoptosis)” value is on record as “dose-dependent formation of c-PARP”. The “cleaved PARP (c-PARP)” value in series [12] is “induced cleaved PARP”. Further, the “cyclin D1” value in series [12] is “significant depletion”. The “expressions of fAR, Mnk1 and Mnk2” value in series [12] was “significantly and in a dose-dependent fashion, reduced”. Also, the “migration of PC-3 cells” value in the series on PC-3 cells is “significantly inhibited migration”.
`CC1=C(/C=C/C(C)=C/C=C/C(C)=C\C(=O)NCc2ccccc2)C(C)(C)CCC1n1ccnc1` (stereo not drawn) [Compound 21, (2Z,4E,6E,8E)-9-(3-(1H-imidazol-1-yl)-2,6,6-trimethylcyclohex-1-en-1-yl)-N-benzyl-3,7-dimethylnona-2,4,6,8-tetraenamide]: the IC50 is 10.7 µM in series [2]; 9.77 µM in series [5]; 7.24 µM in series [6]; 5.88 µM in series [7]; 5.88 to 10.7 µM in [13].
As for `CC1=C(/C=C/C(C)=C/C=C/C(C)=C/C(=O)Nc2ccc(O)cc2)C(C)(C)CCC1` [Compound 4-HPR, N-(4-hydroxyphenyl) retinamide, reference compound], the IC50 in [8] was 3.23 µM; in series [2], 3.98 µM; in [5], 4.65 µM; in series [6] it was 6.02 µM; in series [7], 11.1 µM; in series [9], 3.54 µM. For the same compound, the IC50 in series [10] is 2.69 µM.
